Assay [1] deals with HCV replicon RNA, genotype 1a (strain H77). Kind of assay: HCV replicon assay qRT-PCR, genotype 1a (Huh-1a7 replicon cell line). It is filed as cell-based. The note with it: Hepatitis C virus, read-out: 1a EC50. From the text:
(§1) HCV replicon cell lines (kindly provided by R. Bartenschlager) isolated from colonies as described by Lohman et al. (Lohman et al. (1999) Science 285: 110-113, expressly incorporated by reference in its entirety) and used for all experiments. One of the HCV replicon cell lines (strain Con1, genotype 1b) has the nucleic acid sequence set forth in EMBL Accession No.: AJ242651, the coding sequence of which is from nucleotides 1801 to 8406. Another replicon cell line (strain H77, genotype 1a) was constructed as described by Yi et. al. (Yi et. al. (2004) Journal of Virology 78(15):7904-15). […]
(§2) EC50 values of single agent compounds were determined by HCV RNA detection using quantitative RT-PCR, according to the manufacturer's instructions, with a TAQMAN® One-Step RT-PCR Master Mix Reagents Kit (Cat#AB 4309169, Applied Biosystems) on an ABI Model 7500 thermocycler. EC50 values of combinations are similarly determined by HCV RNA detection using quantitative RT-PCR. The TAQMAN primers to use for detecting and quantifying HCV RNA obtained from Integrated DNA Technologies. HCV RNA is normalized to GAPDH RNA levels in drug-treated cells, which is detected and quantified using the Human GAPDH Endogenous Control Mix (Applied Biosystems, AB 4310884E). […] Chemical agent cytotoxicity is evaluated using an MTS assay according to the manufacturer's directions (Promega). […]
For orientation: Replicon systems follow genome replication, usually without infectious particles.

The subject of assay [2] is HCV replicon RNA, genotype 1b (strain Con1). The assay can be described thus: HCV replicon assay qRT-PCR, genotype 1b (SGR 11-7 replicon cell line). The settings on record: Hepatitis C virus, read-out: 1b EC50. It is filed as cell-based.
Text: as §1, §2

Drawing on patent publication US9085599B2, “2′allene-substituted nucleoside derivatives” (priority 2011, dated 2015), this text covers EC50 for two molecules.

Each structure is given as a SMILES string. Read-outs that look alike come from different tables or passages of the source. Where only a bound is given, the exact number is not on record here.

For orientation: EC50 means the midpoint of the concentration-response curve.

Turning to `C=C=C[C@@]1(O)C(O)[C@@H](COP(=O)(N[C@@H](C)C(=O)OC)Oc2cccc3ccccc23)O[C@H]1n1ccc(=O)[nH]c1=O` (stereo partly shown) [Example 2], the EC50 in assay [1] and in assay [2] was 1 to 10 µM throughout.

Turning to `C=C=C[C@@]1(O)C(O)[C@@H](CO)O[C@H]1n1ccc(=O)[nH]c1=O` (stereo partly shown) [Example 1], the EC50 is above 10 µM in assay [1] (Genotype-1a replicon, HCV RNA by qRT-PCR normalized to GAPDH RNA) and above 10 µM in assay [2] (Genotype-1b replicon, HCV RNA by qRT-PCR normalized to GAPDH RNA).
